Measurements taken from US7524816B2, “Peptides and supported peptides for treating skin diseases” (Genencor International, Inc., priority 2003, dated 2009).
Positions of bridges follow the written chain, without caps; N, C: chain ends. Residues, ends and D or L forms follow the SMILES beside them.

Key:
Human VEGF165 [1] = target: T1, Human VEGF165 (Homo sapiens, UniProt P15692); test: BIAcore surface plasmon resonance binding analysis of VEGF binding peptides
T1 construct: purchased Biosource
T1 sequence (P15692 27-191 isoform P15692-4): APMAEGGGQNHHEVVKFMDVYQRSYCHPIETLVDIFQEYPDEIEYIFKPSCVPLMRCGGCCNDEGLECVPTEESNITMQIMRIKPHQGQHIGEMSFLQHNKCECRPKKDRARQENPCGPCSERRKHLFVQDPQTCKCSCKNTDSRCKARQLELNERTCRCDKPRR
Experimental: FIG. 3 provides results of a BIACORE binding analysis of VEGF binding peptides. Binding curves were obtained as described in the Examples. […]
In this Example, experiments conducted to assess the affinities of the peptides for VEGF are described. Affinities of the peptides for VEGF were measured using a BIAcore™-3000 surface plasmon resonance system (Biacore). A CM5 sensor chip was conditioned with 50 mM NaOH, 0.1% HCl, 0.1% SDS, and 0.08% H3PO4, and activated for covalent coupling of […] using N-ethyl-N′-(3-dimethylaminopropyl)-carbodiimide hydrochloride (EDC) and N-hydroxysuccinimide (NHS) according to the supplier's instructions (Biacore). Human VEGF165 (Biosource) was diluted to 5 μg/ml in 20 mM sodium acetate, pH 4.8 and injected at a flow rate of 2 μl/min to achieve approximately 1000 to 6000 response units (RU) of coupled protein. TNF[…] (human TNF[…], Biosource, Int., Camarillo, Calif.) was similarly coupled to the CM5 sensor chip to approximately 850 to 3500 RU in the reference lane. A solution of 1 M ethanolamine was injected as a blocking agent. In some experiments, an additional solution of EDC and NHS were injected to improve baseline stability and a solution of 1 M ethanolamine injected as a blocking agent. The reference lane is activated with EDC and NHS and blocked with ethanolamine.
Peptides were synthesized using standard FMOC chemistry, purified by reverse phase HPLC to >95% purity (SynPep), and stored at 10 mg/mL in DMSO. For kinetic measurements, twofold serial diluted peptides in HBS-EP buffer, 0.01 M HEPES pH 7.4, 0.15 M NaCl, 3 mM EDTA, 0.005% Surfactant P20 (Biacore), were injected at 25° C. at a flow rate of 20 μL/min. Two-fold serial diluted DMSO samples and buffer samples were also injected for background subtraction. Kinetic parameters were calculated using BIAevaluation 3.1 software.

[2] = test system: human umbilical vein endothelial cells (HUVEC); test: In vitro HUVEC proliferation assay (MTS) of hVEGF inhibitory peptides; format: cell-based; details: 10 ng/ml VEGF, 48 hrs
Experimental: In this Example, experiments conducted to determine the anti-proliferative activity of anti-VEG peptides are described. The antiproliferative activity of VEGF inhibitory peptides was determined using human umbilical vein endothelial cells (HUVEC) as follows. An early passage (less than six) of HUVEC was seeded in 96-well plates at 5000 cells per well and starved for 18 hrs in 200 μl EBM medium (Cambrex) without growth factors and supplemented with 0.5% FBS, at 37° C. with 5% CO2. The medium was replaced with 180 μl of growth medium containing EBM medium with 5% fetal bovine serum and 1% DMSO. Then, 20 μl of VEGF preincubated for one hour with varying peptide concentrations (the final DMSO concentration of all the wells was 1%) were added to the wells for a final VEGF concentration of 10 ng/ml. Human VEGF antibody (R & D Systems) was used as a positive control. Cells with 0.31 to 20 ng/ml concentrations of VEGF alone in the growth medium were used to construct a standard growth curve. The cells were further incubated for 48 hrs, and the cell proliferation was measured using an MTS assay (CellTiter 96 Aqueous One Solution Cell Proliferation Assay Kit; Promega). Then, 40 μl of the MTS tetrazolium solution was added to each well and after 3 and 4 hours incubation, the plates were read at 490 nm. The absorption of media alone was subtracted from all data points.

[3] = Repeat insult patch test (RIPT) on human skin; format: in vivo; details: 0.5% (w/v) in deionized water/butylene glycol; approximately 0.2 mL; 200 human volunteers
Experimental: In this Example, experiments conducted to determine the patch test result for anti-VEGF peptides are described. Samples of the aVEGF peptide CK37281 dosed at 0.5% (w/v) were formulated in a base formulation containing deionized water/butylene glycol. Approximately 0.2 mL of the formulation was applied to 200 human volunteers in a repeated insult patch test according to procedures designed by Clinical Research Laboratories, Inc. (Piscataway, N.J.).

Human VEGF165 [4] = target: T1, Human VEGF165; test: BIAcore binding analysis of BBI-VEGF constructs; details: trypsin and chymotrypsin coupled in remaining lanes
Experimental: In this Example, experiments conducted to determine the binding affinity of constructs produced as indicated in Example 9 are described. Affinities of BBI-VEGF constructs for VEGF were measured using BLAcore-3000 surface plasmon resonance (Biacore). A CM5 sensor chip was conditioned with 50 mM NaOH and activated for covalent coupling of VEGF using N-ethyl-N′-3-dimethylaminopropyl)-carbodiimide hydrochloride (EDC) and N-hydroxysuccinimide (NHS) according to the supplier's instructions (Biacore). VEGF (human VEGF165, Biosource) was diluated to 5 μg/mL in 20 mM sodium acetate, pH 4.8, and injected at a flow rate of 2 μL/min to achieve approximately 1000 to 6000 response units (RU) of coupled protein. Trypsin and chymotrypsin were similarly coupled to the CM5 sensor chip to approximately 850 to 3500 RU in remaining lanes. A solution of 1 M ethanolamine was injected as a blocking agent.

[5] = two state reaction model with conformation change

Row | Molecule | kd1 (Human VEGF165 [1]; 1:1 Langmuir binding fit, 1000 RU VEGF, 850 RU TNF) [s⁻¹] | ka2 (Human VEGF165 [1]; [5]) [s⁻¹] | kd1 (Human VEGF165 [1]; [5]) [s⁻¹] | IC50 antiproliferative activity [2] | dermal irritation or sensitization [3] | binding to VEGF (Human VEGF165 [4]) | binding to VEGF (Human VEGF165 [4]; listed as BBI-VEGF)
1 | CC[C@H](C)[C@@H]1NC(=O)[C@H](CC(=O)O)NC(=O)[C@@H](NC(=O)[C@H](CC(N)=O)NC(=O)[C@@H]2CCCN2C(=O)[C@H](CCC(=O)O)NC(=O)[C@@H](N)C(C)C)CSSC[C@@H](C(=O)N[C@@H](Cc2ccccc2)C(=O)N[C@@H](CCC(=O)O)C(=O)N[C@@H](CCCNC(=N)N)C(=O)N[C@@H](CC(C)C)C(N)=O)NC(=O)[C@H](CCC(=O)O)NC(=O)[C@H](Cc2c[nH]c3ccccc23)NC(=O)[C@H](CCC(=O)O)NC(=O)[C@H](Cc2c[nH]c3ccccc23)NC(=O)[C@H](CCSC)NC(=O)[C@H](C(C)C)NC(=O)[C@H](Cc2c[nH]cn2)NC1=O [v114, reference compound] (H-VEPNCDIHVMWEWECFERL-NH2; disulfide 5-15; N-terminus and C-terminus assumed) | 0.167 |  |  |  |  |  | 
2 | CC(C)C[C@@H]1NC(=O)[C@H](CC(N)=O)NC(=O)[C@@H](NC(=O)[C@H](C)N)CSSC[C@@H](C(=O)NCC(=O)NCC(=O)NCC(=O)O)NC(=O)[C@H](Cc2c[nH]c3ccccc23)NC(=O)[C@H](Cc2ccccc2)NC(=O)[C@H](Cc2c[nH]cn2)NC(=O)[C@@H]2CCCN2C(=O)[C@H](Cc2c[nH]c3ccccc23)NC1=O [CK37283, NLWPHFW] |  | 0.00634 | 0.318 | in the micromolar range |  |  | 
3 | CC(C)C[C@@H]1NC(=O)[C@H](CC(N)=O)NC(=O)[C@H](Cc2ccc(O)cc2)NC(=O)[C@@H](NC(=O)[C@H](C)N)CSSC[C@@H](C(=O)NCC(=O)NCC(=O)NCC(=O)O)NC(=O)[C@H]([C@@H](C)O)NC(=O)[C@H](Cc2c[nH]c3ccccc23)NC(=O)CNC(=O)[C@H](Cc2ccc(O)cc2)NC1=O [CK37281] (H-ACYNLYGWTCGGG-OH; disulfide 2-10 (inferred); N-terminus and C-terminus assumed) |  | 0.0015 | 0.0122 | in the micromolar range | no dermal irritation or sensitization |  | 
4 | BBI-VEGF1: Bowman-Birk inhibitor fusion with one binding loop replaced by anti-VEGF peptide (protein, synthetic BBI-VEGF1 fusion protein) DDESSKPCCDQCACYNLYGWTCRCSDMRLNSCHSACKSCICALSYPAQCFCVDITDFCYEPCKPSEDDKEN |  |  |  |  |  | binds specifically to VEGF | Selective binding affinity to VEGF
